Article PMC3713518, “Structure-based discovery of fiber-binding compounds that reduce the cytotoxicity of amyloid beta” (eLife, 2013)

What was measured:
Aβ1–42 fibers = target: T1, Aβ1–42 fibers (Homo sapiens, UniProt P05067); assay: 1H NMR of compound with fibers; details: PBS pH 7.4, 283 K; binding to full-length Abeta fibers
T1 construct: gene APP; residues 1-42 of Abeta from APP polyprotein; E. coli His-(NANP)19-TEV fusion, tag cut by TEV; fibrils grown 2 months
Excerpt: 1H NMR of compound with fibers on Aβ1–42 fibers

KLVFFA (Aβ16–21) fibers = target: T2, KLVFFA (Aβ16–21) fibers (Homo sapiens, UniProt P05067); assay: 1H NMR titration of compound with fibers; type: binding
T2 construct: gene APP; fibrils grown 3 months; segment of Abeta cut from APP polyprotein

T1 sequence (P05067 672-713): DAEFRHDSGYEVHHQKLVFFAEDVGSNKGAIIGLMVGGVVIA

Binding to Aβ fiber / NMR peak reduction (%) (Aβ1–42 fibers) | Kd (KLVFFA (Aβ16–21) fibers) [µM] | Structure (SMILES)
13 | 24 ± 5 | Cc1ccc(O)c(N=Nc2c(O)cc(S(=O)(=O)O)c3ccccc23)c1 [BAF8]
6 | 43 ± 21 | O=S(=O)(O)c1cc(S(=O)(=O)O)c2c(N=Nc3ccccc3)c(O)ccc2c1 [orange G]

Structure (SMILES) | Binding to Aβ fiber / NMR peak reduction (%) (Aβ1–42 fibers) | Kd (KLVFFA (Aβ16–21) fibers) [µM]
O=C1OC2(c3ccccc31)c1cc(Br)c(O)c(Br)c1Oc1c2cc(Br)c(O)c1Br [BAF1] | 8 | 12 ± 7
